Measurements taken from patent US20190185499A1, “Novel Compounds” (Colgate-Palmolive Company, priority 2017, published 2019).

Assay: Lack of precipitate formation in aqueous solution
Format: physicochemical
Conditions: ~5% concentration solution in water; after three months following its preparation
Description: 3.220 g of sodium ascorbyl phosphate is dissolved into 100 mL water and then 1.567 g of SnF2 is added. The mixture is stirred into completely solubilized and heat at 60 C for one hour. The solution is directly analyzed by 13C-NMR and diluted into 5000 ppm and analyzed by LC-MS.
In one aspect, a solution of ˜5% concentration of stannous ascorbyl phosphate is prepared as described in the above examples.

In the case of stannous ascorbyl phosphate, the “formation of an observable precipitate” value is reported as “will not form an observable precipitate”.
